# Assay results: patent US9751890B2, “Heteroaryl derivatives as CFTR modulators” (Vertex Pharmaceuticals Incorporated, priority 2008, dated 2017)
# Molecular target: T1, ΔF508-CFTR (Homo sapiens, UniProt P13569, DEL508-508)
# T1 construct: expressed in transfected cells
# Assay: Membrane potential optical assay for ΔF508-CFTR correction (single-addition HTS format)
# Format: cell-based
# Settings: NIH3T3 mouse fibroblasts stably expressing ΔF508-CFTR; 16-24 hrs with compound; activation with 10 μM forskolin and 20 μM genistein; read-out: BinnedMaxEfficacy (PercentActivity)
# From the text: Membrane potential optical methods for assaying ΔF508-CFTR modulation properties of compounds.
# The assay utilizes fluorescent voltage sensing dyes to measure changes in membrane potential using a fluorescent plate reader (e.g., FLIPR III, Molecular Devices, Inc.) as a readout for increase in functional ΔF508-CFTR in NIH 3T3 cells. The driving force for the response is the creation of a chloride ion gradient in conjunction with channel activation by a single liquid addition step after the cells have previously been treated with compounds and subsequently loaded with a voltage sensing dye.
# To identify small molecules that correct the trafficking defect associated with ΔF508-CFTR; a single-addition HTS assay format was developed. Assay Plates containing cells are incubated for ˜2-4 hours in tissue culture incubator at 37° C., 5% CO2, 90% humidity. Cells are then ready for compound exposure after adhering to the bottom of the assay plates.
# The cells were incubated in serum-free medium for 16-24 hrs in tissue culture incubator at 37° C., 5% CO2, 90% humidity in the presence or absence (negative control) of test compound. The cells were subsequently rinsed 3× with Krebs Ringers solution and loaded with a voltage sensing redistribution dye. To activate ΔF508-CFTR, 10 μM forskolin and the CFTR potentiator, genistein (20 μM), were added along with Cl^−-free medium to each well. The addition of Cl^−-free medium promoted Cl^− efflux in response to ΔF508-CFTR activation and the resulting membrane depolarization was optically monitored using voltage sensor dyes.
# Bath Solution #1: (in mM) NaCl 160, KCl 4.5, CaCl2 2, MgCl2 1, HEPES 10, pH 7.4 with NaOH.
# Chloride-free bath solution: Chloride salts in Bath Solution #1 are substituted with gluconate salts.
# NIH3T3 mouse fibroblasts stably expressing ΔF508-CFTR are used for optical measurements of membrane potential. The cells are maintained at 37° C. in 5% CO2 and 90% humidity in Dulbecco's modified Eagle's medium supplemented with 2 mM glutamine, 10% fetal bovine serum, 1×NEAA, β-ME, 1× pen/strep, and 25 mM HEPES in 175 cm^2 culture flasks. For all optical assays, the cells were seeded at ˜20,000/well in 384-well matrigel-coated plates and cultured for 2 hrs at 37° C. before culturing at 27° C. for 24 hrs. for the potentiator assay. For the correction assays, the cells are cultured at 27° C. or 37° C. with and without compounds for 16-24 hours.
# T1 sequence (P13569 with tags, fused parts or gaps DEL508-508): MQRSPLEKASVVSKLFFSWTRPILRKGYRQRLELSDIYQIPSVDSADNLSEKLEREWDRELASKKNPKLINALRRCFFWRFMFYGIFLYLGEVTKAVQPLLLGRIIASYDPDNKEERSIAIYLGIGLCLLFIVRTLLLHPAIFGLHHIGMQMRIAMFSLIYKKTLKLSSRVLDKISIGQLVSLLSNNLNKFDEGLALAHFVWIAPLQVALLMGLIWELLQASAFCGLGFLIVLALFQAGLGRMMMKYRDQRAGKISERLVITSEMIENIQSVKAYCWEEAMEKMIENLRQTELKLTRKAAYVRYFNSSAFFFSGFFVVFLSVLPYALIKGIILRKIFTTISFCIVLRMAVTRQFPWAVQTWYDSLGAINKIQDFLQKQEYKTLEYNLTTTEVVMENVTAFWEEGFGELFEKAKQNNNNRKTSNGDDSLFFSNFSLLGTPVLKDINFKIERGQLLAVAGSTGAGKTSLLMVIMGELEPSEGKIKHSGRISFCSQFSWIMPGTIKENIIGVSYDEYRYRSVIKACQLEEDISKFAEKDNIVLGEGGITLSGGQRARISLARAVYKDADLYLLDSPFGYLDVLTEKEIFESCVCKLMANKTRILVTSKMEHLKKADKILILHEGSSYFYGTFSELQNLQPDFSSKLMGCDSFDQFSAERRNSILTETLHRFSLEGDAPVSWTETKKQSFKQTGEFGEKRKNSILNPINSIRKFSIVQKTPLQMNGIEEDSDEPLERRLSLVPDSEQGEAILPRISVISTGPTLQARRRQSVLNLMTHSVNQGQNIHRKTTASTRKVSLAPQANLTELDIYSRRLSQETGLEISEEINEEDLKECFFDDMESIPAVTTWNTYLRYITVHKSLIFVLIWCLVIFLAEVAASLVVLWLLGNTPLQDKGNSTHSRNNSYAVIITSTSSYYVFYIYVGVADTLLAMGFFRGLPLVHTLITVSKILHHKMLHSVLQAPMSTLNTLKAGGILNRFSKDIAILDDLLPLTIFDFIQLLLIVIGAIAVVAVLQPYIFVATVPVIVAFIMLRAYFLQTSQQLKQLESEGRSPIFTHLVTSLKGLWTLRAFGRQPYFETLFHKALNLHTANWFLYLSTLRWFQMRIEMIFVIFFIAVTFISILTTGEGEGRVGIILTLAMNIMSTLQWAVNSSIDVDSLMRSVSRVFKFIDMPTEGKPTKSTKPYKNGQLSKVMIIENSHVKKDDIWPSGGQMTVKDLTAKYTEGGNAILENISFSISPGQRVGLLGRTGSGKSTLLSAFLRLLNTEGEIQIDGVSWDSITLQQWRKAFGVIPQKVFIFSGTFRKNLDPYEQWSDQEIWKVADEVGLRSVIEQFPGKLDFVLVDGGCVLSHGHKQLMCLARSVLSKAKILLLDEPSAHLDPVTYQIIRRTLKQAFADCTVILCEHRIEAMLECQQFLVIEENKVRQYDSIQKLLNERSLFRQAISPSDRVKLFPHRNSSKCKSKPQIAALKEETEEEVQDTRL
compound,measurement,value
"COc1ccccc1Nc1cnc(NC(=O)C2(c3ccc4c(c3)OCO4)CC2)cn1 [Compound 2, 1-(benzo[d][1,3]dioxol-5-yl)-N-(5-(2-methoxyphenylamino)pyrazin-2-yl)cyclopropanecarboxamide]",Emax,> 100%
Cc1ncc(NC(=O)C2(c3ccc4c(c3)OCO4)CC2)cc1-c1ccc(CO)cc1 [Compound 29],Emax,25 to 100%
"O=C(Nc1ccc(-c2ccccc2Cl)nc1)C1(c2ccc3c(c2)OCO3)CC1 [Compound 7, 1-(benzo[d][1,3]dioxol-5-yl)-N-(6-(2-chlorophenyl)pyridin-3-yl)cyclopropanecarboxamide]",Emax,> 100%
"Cc1cnc(NC(=O)C2(c3ccc4c(c3)OC(F)(F)O4)CC2)nc1-c1cccc(C(=O)O)c1 [Compound 45, 3-(2-(1-(2,2-difluorobenzo[d][1,3]dioxol-5-yl)cyclopropanecarboxamido)-5-methylpyrimidin-4-yl)benzoic acid]",Emax,25 to 100%
Cc1ncc(NC(=O)C2(c3ccc4c(c3)OCO4)CC2)cc1-c1ccc(S(=O)(=O)N(C)C)cc1 [Compound 8],Emax,> 100%
O=C(Nc1ccc(Cc2ccccc2)nn1)C1(c2ccc3c(c2)OCO3)CC1 [Compound 44],Emax,25 to 100%
"O=C(Nc1ccc(Cc2ccccc2Cl)nc1)C1(c2ccc3c(c2)OCO3)CC1 [Compound 37, 1-(benzo[d][1,3]dioxol-5-yl)-N-(6-(2-chlorobenzyl)pyridin-3-yl)cyclopropanecarboxamide]",Emax,> 100%
"COc1ccc(-c2nc(NC(=O)C3(c4ccc5c(c4)OC(F)(F)O5)CC3)ncc2C)cn1 [Compound 10, 1-(2,2-difluorobenzo[d][1,3]dioxol-5-yl)-N-(4-(6-methoxypyridin-3-yl)-5-methylpyrimidin-2-yl)cyclopropanecarboxamide]",Emax,25 to 100%
"CNS(=O)(=O)c1ccc(-c2cc(NC(=O)C3(c4ccc5c(c4)OCO5)CC3)cnc2C)cc1 [Compound 30, 1-(benzo[d][1,3]dioxol-5-yl)-N-(6-methyl-5-(4-(N-methylsulfamoyl)phenyl)pyridin-3-yl)cyclopropanecarboxamide]",Emax,> 100%
"O=C(Nc1ccnc(Cc2ccccc2)c1)C1(c2ccc3c(c2)OCO3)CC1 [Compound 36, 1-(benzo[d][1,3]dioxol-5-yl)-N-(2-benzylpyridin-4-yl)cyclopropanecarboxamide]",Emax,> 100%
O=C(Nc1ccc(Cc2ccccc2Cl)nn1)C1(c2ccc3c(c2)OCO3)CC1 [Compound 46],Emax,25 to 100%
O=C(Nc1cnc(Cc2ccccc2)cn1)C1(c2ccc3c(c2)OCO3)CC1 [Compound 12],Emax,> 100%
COc1ccc(C2(C(=O)Nc3cnccn3)CC2)cc1 [Compound 21],Emax,25 to 100%
